# According to US7303895B1 (priority 1999, dated 2007):
# How the values were obtained:
# Assay type in all cases: cell-based
# N18 cells = experiment: capture of tritiated choline by N18 cells transiently transfected with rCTL1a/pcDNA3, rCTL1b/pcDNA3 or pcDNA3; conditions: 10 μM of the substance; 24 hours after transfection; same in all three transfections (rCTL1a, rCTL1b, empty pcDNA3); result not shown
# CTL1 in glioma cell C6 = target: T1, CTL1 in glioma cell C6 (Rattus norvegicus, UniProt Q8VII6, K645E/R267S); experiment: total absorption of choline by glioma C6 cells transiently transfected with CTL1pcDNA3; conditions: hemicholinium-3; 48 hours after transfection; only C6-CTL1pcDNA3 cells, not empty-plasmid cells
# T1 construct: expressed in transfected cells; host or cells: glioma C6 cells, transient transfection, vector pcDNA3
# T1 sequence (Q8VII6 1-653 isoform Q8VII6-2 R267S/K645E): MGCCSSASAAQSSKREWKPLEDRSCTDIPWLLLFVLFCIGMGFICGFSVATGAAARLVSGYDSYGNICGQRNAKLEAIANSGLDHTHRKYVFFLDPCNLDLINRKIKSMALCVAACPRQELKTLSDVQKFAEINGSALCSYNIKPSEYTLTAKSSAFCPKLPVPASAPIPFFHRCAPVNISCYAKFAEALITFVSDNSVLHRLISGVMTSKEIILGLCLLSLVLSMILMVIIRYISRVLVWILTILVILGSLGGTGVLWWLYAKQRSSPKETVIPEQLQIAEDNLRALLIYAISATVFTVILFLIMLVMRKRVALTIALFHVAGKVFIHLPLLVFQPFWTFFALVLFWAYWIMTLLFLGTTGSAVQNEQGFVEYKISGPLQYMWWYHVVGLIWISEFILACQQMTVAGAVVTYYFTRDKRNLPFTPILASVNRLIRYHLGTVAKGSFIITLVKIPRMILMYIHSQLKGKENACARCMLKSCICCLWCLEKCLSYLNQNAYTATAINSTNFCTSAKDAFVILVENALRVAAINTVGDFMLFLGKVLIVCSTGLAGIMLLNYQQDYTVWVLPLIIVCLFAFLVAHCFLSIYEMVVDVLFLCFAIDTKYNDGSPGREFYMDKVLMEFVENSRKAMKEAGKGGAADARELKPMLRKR
# Excerpt: FIGS. 8A-8C: Transient transfection of glioma cell C6 with the vector CTL1pcDNA3 described in FIG. 6.
# [1] = target: T2, mutant yeast transformed by 4.17 (truncated tCTL1) (Torpedo marmorata, UniProt Q9I9B9, G501V); experiment: saturable [3H]choline absorption by mutant yeast transformed with clone 4.17; conditions: 1 μM HC-3, 30° C., 30 minutes
# T2 construct: the suppressor, 4.17, whose first ATG corresponds to M471 of tCTLI; expressed in transfected cells; host or cells: Saccharomyces cerevisiae ctr ise URA3 mutant strain, plasmid pFL61
# T2 sequence (Q9I9B9 471-646 G501V): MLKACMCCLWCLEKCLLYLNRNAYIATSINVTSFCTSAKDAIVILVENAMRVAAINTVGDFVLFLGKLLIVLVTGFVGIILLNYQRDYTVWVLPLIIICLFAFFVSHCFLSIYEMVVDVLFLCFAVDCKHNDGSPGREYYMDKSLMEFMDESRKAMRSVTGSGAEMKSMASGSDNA
# Method: The transformed yeast was incubated at 30° C. for 30 minutes with 25 nM [3H]-choline.
# The plasmids were isolated from colonies having a strong choline-dependent growth phenotype, and they were used to transform aliquot fractions of mutant yeast in order to eliminate the ctr reverse mutants and the yeast suppressor mutations.
# The culture density was normalized by measuring the OD600.
smiles,measurement,setting,value
"C[N+]1(C)CCOC(O)(c2ccc(-c3ccc(C4(O)C[N+](C)(C)CCO4)cc3)cc2)C1.[Br-].[Br-] (stereo not drawn) [HC-3, hemicholinium-3]",inhibition of capture of tritiated choline,N18 cells,about 50%
same,inhibition of total absorption of choline,CTL1 in glioma cell C6,inhibition
same,saturable [3H]choline absorption by the yeast transformed in 4.17,[1],inhibited
